Values of other authors as cited in patent publication US7671051B2, “Inhibitors of 11-β-hydroxy steroid dehydrogenase type 1” (Biovitrum AB, priority 2001, dated 2010).

Tested on: bone nodule formation

## CC1(C)[C@@H](OC(=O)CCC(=O)O)CC[C@]2(C)[C@H]3C(=O)C=C4[C@@H]5C[C@@](C)(C(=O)O)CC[C@]5(C)CC[C@@]4(C)[C@]3(C)CC[C@@H]12 [carbenoxolone]
  negative effect (of glucocorticoid) on bone nodule formation: blocked
